Values joined by “and” are separate entries in the source; they are usually repeats but may differ in a detail not shown here. Equal entries are not always repeated.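 Assay format: 96-well plates, 48-hour exposure. GI50 is the concentration that inhibits growth by half. Definition used: TGI = concentration required for complete inhibition of growth.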
Legend:
Test in all cases: NCI anticancer screen, dose series, 48 h
SF-539 CNS = tested on: SF-539 CNS
SN12C renal = tested on: SN12C renal
MALME-3M melanoma = tested on: MALME-3M melanoma
NCI-H460 lung = tested on: NCI-H460 lung
LXFL 529 NSCLC = tested on: LXFL 529 NSCLC
HL-60(TB) leukemia = tested on: HL-60(TB) leukemia
IGROV1 ovarian = tested on: IGROV1 ovarian
ACHN renal = tested on: ACHN renal
SW-620 colon = tested on: SW-620 colon
DMS 273 small cell lung = tested on: DMS 273 small cell lung
HOP-18 NSCLC = tested on: HOP-18 NSCLC
XF 498 CNS = tested on: XF 498 CNS

Row | Compound | TGI (SF-539 CNS) [µM] | TGI (SN12C renal) [µM] | TGI (MALME-3M melanoma) [µM] | TGI (NCI-H460 lung) [µM] | TGI (LXFL 529 NSCLC) [µM] | TGI (HL-60(TB) leukemia) [µM] | TGI (IGROV1 ovarian) [µM] | TGI (ACHN renal) [µM] | TGI (SW-620 colon) [µM] | TGI (DMS 273 small cell lung) [µM] | TGI (HOP-18 NSCLC) [µM] | TGI (XF 498 CNS) [µM] | GI50 (SF-539 CNS) | GI50 (IGROV1 ovarian) | GI50 (ACHN renal) | GI50 (SW-620 colon)
1 | c1ccc2[nH]c(CNc3ccc(C4C[Se]N=N4)cc3)nc2c1 (centres undefined) | > 100 | > 100 | > 100 | > 100 | 67.7 | 77.7 | > 100 | > 100 | > 100 | > 100 | > 100 |  |  |  |  | 
2 | CSc1nc2c(ncn2C2OC(CO)C(O)C(O)C2O)c(=O)[nH]1 (centres undefined) | > 100 | > 100 | > 100 | > 100 |  | > 100 | > 100 |  | > 100 | > 100 | > 100 | > 100 |  |  |  | 
3 | c1ccc2c(c1)CCCC/C2=N/OCC1CO1 (centres undefined) | > 100 | > 100 | > 100 | > 100 | > 100 | 44.1 | > 100 | > 100 | > 100 | > 100 | > 100 | 77.3 |  |  |  | 
4 | Nc1ccccc1C(=O)C(Br)C(Br)c1ccc2c(c1)OCO2 (centres undefined) | 33.8 | 72.5 | 39 | 39.2 | 46 | > 100 | > 100 | 51 | > 100 | 34 | 44.4 | 34 |  |  |  | 
5 | O=C1C2=C(CCC2)Nc2cccc3ncn1c23 | > 100 | > 100 | > 100 | > 100 | > 100 | > 100 | > 100 | > 100 | > 100 | > 100 | 64.2 | > 100 |  |  |  | 
6 | O=C(NN1C(=O)CSC1c1cccc(F)c1)c1ccncc1 (centres undefined) | > 100 | > 100 | > 100 |  | > 100 | > 100 | > 100 | > 100 | > 100 | > 100 |  | > 100 |  |  |  | 
7 | C=CCN1C(=O)/C(=C/c2ccc(C)cc2)N=C1SC1OC(COC(C)=O)C(OC(C)=O)C(OC(C)=O)C1OC(C)=O (centres undefined) | > 100 | > 100 | > 100 | > 100 |  | > 100 | > 100 | > 100 | > 100 |  |  |  | 16.7 µM and 41.6 µM | > 100 µM and 24.7 µM | > 27.6 µM and 67.3 µM | > 100 µM and 39.1 µM
8 | COc1cc(C(O)c2ccc3c(c2)OCO3)cc(OC)c1OC (centres undefined) | > 100 | > 100 | > 100 | > 100 |  | > 100 | > 100 | > 100 | > 100 |  |  |  |  |  |  | 
9 | CN(C)c1cccc2c1C(=O)C=CC21c2ccc(N(C)C)c3c(N(C)C)ccc(c23)C(c2ccccc2)C1c1ccccc1 (centres undefined) | 26 | 32.7 | 35.6 | 61.5 |  | 22.6 | 29.3 | 26.6 | 54 |  |  |  |  |  |  | 
10 | Clc1ccc(/C(=C\c2ccccc2)Cn2ccnc2)cc1 | 31.5 | 89.2 | 27 | 44.8 |  | 45.5 | > 100 | 67.6 | > 100 |  |  |  |  |  |  | 
11 | CCNc1ncnc2sc(SCc3ccccc3)nc12 | > 100 | > 100 | > 100 | > 100 |  | 56.4 | > 100 | > 100 | > 100 |  |  |  |  |  |  | 
12 | C(=C\c1ccccc1)/COc1ccccc1C(N1CCOCC1)n1nc2ccccc2n1 (centres undefined) | 6.62 | 24.1 | 14.4 | > 51.3 |  | 1.45 | 41.6 | 38.8 | 36.5 |  |  |  |  |  |  | 
13 | Cc1cc(NS(=O)(=O)c2ccc(NC(NC(=O)C(C(F)(F)F)C(F)(F)F)(C(F)(F)F)C(F)(F)F)cc2)no1 | > 100 | > 100 | > 100 | > 100 |  | > 100 | > 100 | > 100 | > 100 |  |  |  |  |  |  | 
14 | Cc1ccc2oc(=O)c(-c3ccccc3)nc2c1 | 50.5 | > 100 | 66.1 | > 100 |  |  |  | > 100 | > 100 | 37.6 | 84.4 | > 100 |  |  |  | 
15 | O=C(/C=C/c1ccc2c(c1)OCO2)Cc1nc2ccccc2[nH]c1=O | > 100 | 60.2 | 43.4 | > 100 |  | > 100 | > 100 | 74.3 | > 100 |  |  |  |  |  |  | 
16 | O=[N+]([O-])c1ccc2c(c1)c(N=NC(=S)Nc1ccc(Cl)cc1)c(O)n2CN1CCOCC1 | 26.4 | 15.7 | 18.8 | 20.3 |  | 11.5 | 18.1 | 16.4 | 30.8 |  |  |  |  |  |  | 

Row | Compound | TGI (SF-539 CNS) [µM] | TGI (SN12C renal) [µM] | TGI (MALME-3M melanoma) [µM] | TGI (NCI-H460 lung) [µM] | TGI (LXFL 529 NSCLC) [µM] | TGI (HL-60(TB) leukemia) [µM] | TGI (IGROV1 ovarian) [µM] | TGI (ACHN renal) [µM] | TGI (SW-620 colon) [µM] | TGI (DMS 273 small cell lung) [µM] | TGI (HOP-18 NSCLC) [µM] | TGI (XF 498 CNS) [µM] | GI50 (SF-539 CNS) | GI50 (IGROV1 ovarian) | GI50 (ACHN renal) | GI50 (SW-620 colon)
17 | N#C/C(=C1\SC(N=Nc2ccc(Cl)cc2)C(=O)N1c1ccccc1)c1nc2ccccc2[nH]1 (centres undefined) | > 100 | > 100 | 99.1 | > 100 | > 100 | > 100 |  | > 100 | > 100 | > 100 |  | 84.8 |  |  |  | 
18 | COc1nc2c(N3CCCC3)nc(N3CCNCC3)nc2nc1NCc1ccccc1 | 3.21 | 4.95 | 3.55 | 4.91 |  | 3.7 | 8.8 | 7.01 | 11.1 |  |  |  |  |  |  | 
19 | O=C1C(C(O)(C(F)(F)F)C(F)(F)F)CCC1C(O)(C(F)(F)F)C(F)(F)F (centres undefined) | > 43.5 | 30.9 | 17.9 | > 100 |  | 6.44 | > 86 | > 61.5 | > 100 |  |  |  |  |  |  | 
20 | C/C(=N\Nc1nc2ccccc2s1)c1ccc2ccccc2n1 | > 100 | > 100 | > 100 | > 100 |  | 52.9 | 47.1 | > 100 | > 100 |  |  |  |  |  |  | 
21 | COP(=O)(OC)C(Nc1ccc(Cc2ccc(NC(c3ccco3)P(=O)(OC)OC)cc2)cc1)c1ccco1 (centres undefined) | 16.2 | > 100 | > 100 | > 100 |  | > 100 | > 100 | 89.9 | > 100 |  |  |  |  |  |  | 
22 | CC1=NNC(=O)C1C1CC(c2c[nH]c3ccccc23)=NN=C1Cl (centres undefined) | > 100 | > 100 | > 100 | > 100 |  | 53.6 | > 100 | > 100 | > 100 |  |  |  |  |  |  | 
23 | CC(C)N1CN(c2ccccc2)C2(CCN(CCCC(=O)c3ccc(F)cc3)CC2)C1=O | 22.1 | > 55.4 | 29.6 | 54.2 |  | 40.7 | 17.5 | 42.5 | 24.2 |  |  |  |  |  |  | 
24 | COc1ccc(N2C(=O)C3c4[nH]c5ccccc5c4C4CCCCCCCCCC4C3C2=O)cc1 (centres undefined) | > 10 | > 10 | > 10 | > 10 |  | > 10 | > 10 | > 10 | > 10 |  |  |  |  |  |  | 
25 | CCOC(=O)C1CCC(=O)N1C(=O)c1ccccc1Cl (centres undefined) | > 100 | > 100 | > 100 | > 100 |  | > 100 | > 100 | > 100 | > 100 |  |  |  |  |  |  | 
26 | O=[N+]([O-])c1cc(Cl)ccc1Sc1ccccc1 | > 100 | > 100 | > 100 | > 100 |  | > 100 | > 100 | > 100 | > 100 |  |  |  |  |  |  | 
27 | CCOP(=O)(OCC)OC1CC(n2cc(C)c(=O)n(C)c2=O)OC1CO[Si](C)(C)C(C)(C)C (centres undefined) | > 100 | > 100 | > 100 | > 100 |  | 57.4 | > 100 | > 100 | > 100 |  |  |  |  |  |  | 
28 | O=C1C2=Nc3ccccc3C(O)(C(=O)O)N2c2ccccc21 (centres undefined) | 48.4 | > 100 | 28.2 | 39.3 |  | 77 | > 100 | > 100 | > 100 |  |  |  |  |  |  | 
29 | C[C@H]1[C@H](C)CC[C@]2(C(=O)OC3OC(CO)C(O)C(O)C3O)CC[C@]3(C)C(=CC[C@@H]4[C@@]5(C)C[C@H]6OC(=O)c7cc(O)c(O)c(O)c7-c7c(cc(O)c(O)c7O)C(=O)O[C@@H]6C(CO)(CO)[C@@H]5CC[C@]43C)[C@H]12 (some centres undefined) | > 100 | > 100 | > 100 | > 100 |  | > 100 | > 100 | > 100 | > 100 |  |  |  |  |  |  | 
30 | CN(C)c1ccc(Cc2cc3c(O)ccc(O)c3cc(Cc3ccc(N(C)C)cc3)c2=O)cc1 | 60.9 | > 73.2 | 45.4 | > 100 |  | > 37.6 | 40.2 | 25.3 | 41.9 |  |  |  |  |  |  | 
31 | COc1ccc(/C=N/n2c(C)nc3c(sc(=S)n3-c3ccccc3)c2=O)cc1 | > 100 |  |  | > 100 | > 100 | 61.2 | > 100 | > 100 | > 100 |  | > 100 |  |  |  |  | 
